Measurements reported in patent publication US20220016277A1, “MACROCYCLIC COMPLEXES OF RADIONUCLIDES AND THEIR USE IN RADIOTHERAPY OF CANCER” (Cornell University, priority 2018, published 2022).

Assay: Organ distribution of ^225Ac complexes following intravenous injection in mice
Type: in vivo, C57BL/6 mice
Description: In Vivo Biodistribution of ^225Ac Complexes of Macropa and DOTA. All experiments were approved by the Institutional Animal Care Committee (IACC) of the University of British Columbia and were performed in accordance with the Canadian Council on Animal Care Guidelines. A total of 9 female C57BL/6 mice (6-8 weeks old, 20-25 g) were used for the biodistribution study of each radiometal complex, n=3 for each time point.
Macropa (100 μL of a 1 mg/mL solution in NH4OAc) was diluted with 387 μL of NH4OAc (1 M, pH 7), and an aliquot (203 μL) of ^225Ac(NO3)3 (˜157 kBq) was then added; the pH of this solution was adjusted to 6.5-7 by the addition of 1 M NaOH (210 μL, trace metal grade). After 5 min at ambient temperature, the reaction solution was analyzed by TLC (0.4 M pH 4 sodium citrate as the eluent), which confirmed >95% radiochemical yield. The reaction was allowed to proceed overnight, and the radiochemical yield was again confirmed to be >95% the following morning. At this time, mice were anesthetized by 2% isoflurane, and approximately 100 μL (10-15 kBq) of the [^225Ac(macropa)]^+ complex were injected into the tail vein of each mouse. After injection, mice were allowed to recover and roam freely in their cages, and were euthanized by CO2 inhalation at 15 min, 1 h, or 5 h (n=3 at each time point) post-injection. Blood was collected by cardiac puncture and placed into an appropriate test tube for scintillation counting. Tissues collected included heart, liver, kidneys, lungs, small intestine, large intestine, brain, bladder, spleen, stomach, pancreas, bone, thyroid, tail, urine, and feces. Tissues were weighed and then counted with a calibrated gamma counter (Packard, Cobra II model 5002) using three energy windows: 60-120 keV (window A), 180-260 keV (window B), and 400-480 keV (window C). Counting was performed both immediately after sacrifice and after 7 days; counts were decay corrected from the time of injection and then converted to the percentage of injected dose (% ID) per gram of tissue (% ID/g). […]
The biodistribution studies of [^225Ac(DOTA)]^− and ^225Ac(NO3)3 were carried out as described above for [^225Ac(macropa)]^+, with the following modifications. [^225Ac(DOTA)^− was prepared by adding ^225Ac(NO3)3 (338 μL, 1.1 MBq) to a solution of DOTA (100 μg, 20 mg/mL in H2O) in NH4OAc (467 μL, 0.15 M, pH 7). The pH of the solution was adjusted to 7 using NH4OAc (150 μL, 1 M, pH 7) and the solution was heated at 85° C. for 45 min. RCY >99% was confirmed by TLC as described above. [^225Ac(DOTA)]^− was diluted with saline to a final concentration of 0.05 MBq/100 μL, and 100 μL were injected into each mouse. ^225Ac(NO3)3 (˜58 μL, 0.4 MBq) was diluted and injected in the same manner as [^225Ac(DOTA)]^−. One mouse that was to be euthanized at the 5 h time point in the [^225Ac(DOTA)]^− study died shortly after injection. In the same manner, one mouse that was to be euthanized at the 1 h time point in the ^225Ac(NO3)3 study died.
The in vivo stability [^225Ac(macropa)]^+ was examined by comparing its biodistribution to those of ^225Ac(NO3)3 and [^225Ac(DOTA)]^−. C57BL/6 mice were injected via tail vein with 10-50 kBq of each radiometal complex and were sacrificed after 15 min, 1 h, or 5 h. The amount of ^225Ac retained in each organ was quantified by gamma counting and reported as the percent of injected dose per gram of tissue (% ID/g). The results of these studies are compiled in Tables 1-3. Inadequate stability of an ^225Ac complex leading to the loss of radioisotope in vivo is manifested by the accumulation of ^225Ac in the liver, spleen, and bone of mice.^[11,12,32] […] The biodistribution profile of [^225Ac(macropa)]^+ (FIG. 3B) differs markedly from that of ^225Ac(NO3)3. […] Its biodistribution profile was similar to that of [^225Ac(DOTA)]^− (FIG. 3C), which has been previously shown to retain ^225Ac^3+ in vivo.^[7]

[1] = 15 min post i.v. injection, energy window A (60-120 keV)
[2] = 15 min post i.v. injection, energy window B (180-260 keV)
[3] = 15 min post i.v. injection, energy window C (400-480 keV)
[4] = 1 h post i.v. injection, energy window A (60-120 keV)
[5] = 1 h post i.v. injection, energy window B (180-260 keV)
[6] = 1 h post i.v. injection, energy window C (400-480 keV)
[7] = 5 h post i.v. injection, energy window A (60-120 keV)
[8] = 5 h post i.v. injection, energy window B (180-260 keV)
[9] = 5 h post i.v. injection, energy window C (400-480 keV)
[10] = C57BL/6 mice, i.v., 15 min to 5 h

O=C([O-])c1cccc(CN2CCOCCOCCN(Cc3cccc(C(=O)[O-])n3)CCOCCOCC2)n1.[225Ac+3] [[^225Ac(macropa)]^+]
Organ distribution: bladder [1]: 46.74 % ID/g | Organ distribution: blood [1]: 5.11 % ID/g | Organ distribution: bone (femur + joint) [1]: 2.52 % ID/g | Organ distribution: brain [1]: 0.26 % ID/g | Organ distribution: feces [1]: 0.91 % ID/g | Organ distribution: heart [1]: 2.19 % ID/g | Organ distribution: kidneys [1]: 27.55 % ID/g | Organ distribution: large intestines [1]: 2.40 % ID/g | Organ distribution: liver [1]: 2.28 % ID/g | Organ distribution: lungs [1]: 5.98 % ID/g | Organ distribution: pancreas [1]: 1.46 % ID/g | Organ distribution: small intestines [1]: 2.64 % ID/g | Organ distribution: spleen [1]: 2.52 % ID/g | Organ distribution: stomach [1]: 2.97 % ID/g | Organ distribution: tail [1]: 8.84 % ID/g | Organ distribution: thyroids [1]: 28.23 % ID/g | Organ distribution: urine [1]: 1378.82 % ID/g | Organ distribution: bladder [2]: 47.64 % ID/g | Organ distribution: blood [2]: 5.23 % ID/g | Organ distribution: bone (femur + joint) [2]: 2.69 % ID/g | Organ distribution: brain [2]: 0.23 % ID/g | Organ distribution: feces [2]: 1.04 % ID/g | Organ distribution: heart [2]: 2.39 % ID/g | Organ distribution: kidneys [2]: 27.86 % ID/g | Organ distribution: large intestines [2]: 2.53 % ID/g | Organ distribution: liver [2]: 2.17 % ID/g | Organ distribution: lungs [2]: 5.83 % ID/g | Organ distribution: pancreas [2]: 1.63 % ID/g | Organ distribution: small intestines [2]: 2.59 % ID/g | Organ distribution: spleen [2]: 2.55 % ID/g | Organ distribution: stomach [2]: 3.29 % ID/g | Organ distribution: tail [2]: 9.39 % ID/g | Organ distribution: thyroids [2]: −2.22 % ID/g | Organ distribution: urine [2]: 1541.60 % ID/g | Organ distribution: bladder [3]: 64.68 % ID/g | Organ distribution: blood [3]: 6.49 % ID/g | Organ distribution: bone (femur + joint) [3]: 3.74 % ID/g | Organ distribution: brain [3]: 0.17 % ID/g | Organ distribution: feces [3]: 1.26 % ID/g | Organ distribution: heart [3]: 2.87 % ID/g | Organ distribution: kidneys [3]: 33.46 % ID/g | Organ distribution: large intestines [3]: 3.02 % ID/g | Organ distribution: liver [3]: 2.72 % ID/g | Organ distribution: lungs [3]: 7.55 % ID/g | Organ distribution: pancreas [3]: 3.00 % ID/g | Organ distribution: small intestines [3]: 3.46 % ID/g | Organ distribution: spleen [3]: 3.79 % ID/g | Organ distribution: stomach [3]: 3.45 % ID/g | Organ distribution: tail [3]: 11.75 % ID/g | Organ distribution: thyroids [3]: −6.46 % ID/g | Organ distribution: urine [3]: 2387.66 % ID/g | Organ distribution: bladder [4]: 6.23 % ID/g | Organ distribution: blood [4]: 0.40 % ID/g | Organ distribution: bone (femur + joint) [4]: 0.31 % ID/g | Organ distribution: brain [4]: 0.12 % ID/g | Organ distribution: feces [4]: 0.28 % ID/g | Organ distribution: heart [4]: 0.31 % ID/g | Organ distribution: kidneys [4]: 13.36 % ID/g | Organ distribution: large intestines [4]: 0.36 % ID/g | Organ distribution: liver [4]: 0.75 % ID/g | Organ distribution: lungs [4]: 0.51 % ID/g | Organ distribution: pancreas [4]: 0.19 % ID/g | Organ distribution: small intestines [4]: 1.10 % ID/g | Organ distribution: spleen [4]: 0.51 % ID/g | Organ distribution: stomach [4]: 0.41 % ID/g | Organ distribution: tail [4]: 1.82 % ID/g | Organ distribution: thyroids [4]: 3.18 % ID/g | Organ distribution: urine [4]: 489.11 % ID/g | Organ distribution: bladder [5]: 5.92 % ID/g | Organ distribution: blood [5]: 0.39 % ID/g | Organ distribution: bone (femur + joint) [5]: 0.17 % ID/g | Organ distribution: brain [5]: 0.12 % ID/g | Organ distribution: feces [5]: 0.27 % ID/g | Organ distribution: heart [5]: 0.20 % ID/g | Organ distribution: kidneys [5]: 12.97 % ID/g | Organ distribution: large intestines [5]: 0.22 % ID/g | Organ distribution: liver [5]: 0.70 % ID/g | Organ distribution: lungs [5]: 0.54 % ID/g | Organ distribution: pancreas [5]: 0.12 % ID/g | Organ distribution: small intestines [5]: 0.94 % ID/g | Organ distribution: spleen [5]: 0.23 % ID/g | Organ distribution: stomach [5]: 0.33 % ID/g | Organ distribution: tail [5]: 1.82 % ID/g | Organ distribution: thyroids [5]: 0.10 % ID/g | Organ distribution: urine [5]: 517.19 % ID/g | Organ distribution: bladder [6]: 9.00 % ID/g | Organ distribution: blood [6]: 0.54 % ID/g | Organ distribution: bone (femur + joint) [6]: 0.70 % ID/g | Organ distribution: brain [6]: 0.23 % ID/g | Organ distribution: feces [6]: 0.69 % ID/g | Organ distribution: heart [6]: 0.23 % ID/g | Organ distribution: kidneys [6]: 17.38 % ID/g | Organ distribution: large intestines [6]: 0.79 % ID/g | Organ distribution: liver [6]: 1.08 % ID/g | Organ distribution: lungs [6]: 0.84 % ID/g | Organ distribution: pancreas [6]: 0.43 % ID/g | Organ distribution: small intestines [6]: 1.62 % ID/g | Organ distribution: spleen [6]: 0.48 % ID/g | Organ distribution: stomach [6]: 0.17 % ID/g | Organ distribution: tail [6]: 2.57 % ID/g | Organ distribution: thyroids [6]: 8.34 % ID/g | Organ distribution: urine [6]: 641.63 % ID/g | Organ distribution: bladder [7]: 4.25 % ID/g | Organ distribution: blood [7]: 0.01 % ID/g | Organ distribution: bone (femur + joint) [7]: 0.05 % ID/g | Organ distribution: brain [7]: 0.02 % ID/g | Organ distribution: feces [7]: 3.46 % ID/g | Organ distribution: heart [7]: 0.10 % ID/g | Organ distribution: kidneys [7]: 0.74 % ID/g | Organ distribution: large intestines [7]: 0.49 % ID/g | Organ distribution: liver [7]: 0.39 % ID/g | Organ distribution: lungs [7]: 0.01 % ID/g | Organ distribution: pancreas [7]: 0.10 % ID/g | Organ distribution: small intestines [7]: 0.29 % ID/g | Organ distribution: spleen [7]: 0.11 % ID/g | Organ distribution: stomach [7]: 0.01 % ID/g | Organ distribution: tail [7]: 0.14 % ID/g | Organ distribution: thyroids [7]: 0.10 % ID/g | Organ distribution: urine [7]: 12.78 % ID/g | Organ distribution: bladder [8]: 3.69 % ID/g | Organ distribution: blood [8]: 0.00 % ID/g | Organ distribution: bone (femur + joint) [8]: 0.02 % ID/g | Organ distribution: brain [8]: −0.01 % ID/g | Organ distribution: feces [8]: 3.49 % ID/g | Organ distribution: heart [8]: −0.04 % ID/g | Organ distribution: kidneys [8]: 0.78 % ID/g | Organ distribution: large intestines [8]: 0.45 % ID/g | Organ distribution: liver [8]: 0.36 % ID/g | Organ distribution: lungs [8]: −0.05 % ID/g | Organ distribution: pancreas [8]: −0.12 % ID/g | Organ distribution: small intestines [8]: 0.29 % ID/g | Organ distribution: spleen [8]: 0.09 % ID/g | Organ distribution: stomach [8]: 0.04 % ID/g | Organ distribution: tail [8]: 0.13 % ID/g | Organ distribution: thyroids [8]: −6.94 % ID/g | Organ distribution: urine [8]: 13.51 % ID/g | Organ distribution: bladder [9]: 8.52 % ID/g | Organ distribution: blood [9]: 0.04 % ID/g | Organ distribution: bone (femur + joint) [9]: 0.08 % ID/g | Organ distribution: brain [9]: −0.01 % ID/g | Organ distribution: feces [9]: 5.27 % ID/g | Organ distribution: heart [9]: 0.28 % ID/g | Organ distribution: kidneys [9]: 1.07 % ID/g | Organ distribution: large intestines [9]: 0.68 % ID/g | Organ distribution: liver [9]: 0.55 % ID/g | Organ distribution: lungs [9]: 0.15 % ID/g | Organ distribution: pancreas [9]: 0.13 % ID/g | Organ distribution: small intestines [9]: 0.42 % ID/g | Organ distribution: spleen [9]: 0.43 % ID/g | Organ distribution: stomach [9]: 0.13 % ID/g | Organ distribution: tail [9]: 0.28 % ID/g | Organ distribution: thyroids [9]: 19.89 % ID/g | Organ distribution: urine [9]: 22.27 % ID/g | blood clearance and excretion (in words) [10]: rapidly cleared from mice | organ accumulation (in words) [10]: did not accumulate in any organ
